The results in this text go back to patent US9447060B2, “Small molecule modulators of pRb inactivation” (The Wistar Institute of Anatomy and Biology, priority 2011, dated 2016).

The target in test [1] is T1, GST-pRbABC/E2F complex disrupted by 6×His-HPV1AE7CR2-3 (Homo sapiens, UniProt P06400).
T1 construct: made in house; host or cells: pRb: Sf9; E2F1 and E7: E. coli BL21(DE3)
T1 sequence (P06400 376-928): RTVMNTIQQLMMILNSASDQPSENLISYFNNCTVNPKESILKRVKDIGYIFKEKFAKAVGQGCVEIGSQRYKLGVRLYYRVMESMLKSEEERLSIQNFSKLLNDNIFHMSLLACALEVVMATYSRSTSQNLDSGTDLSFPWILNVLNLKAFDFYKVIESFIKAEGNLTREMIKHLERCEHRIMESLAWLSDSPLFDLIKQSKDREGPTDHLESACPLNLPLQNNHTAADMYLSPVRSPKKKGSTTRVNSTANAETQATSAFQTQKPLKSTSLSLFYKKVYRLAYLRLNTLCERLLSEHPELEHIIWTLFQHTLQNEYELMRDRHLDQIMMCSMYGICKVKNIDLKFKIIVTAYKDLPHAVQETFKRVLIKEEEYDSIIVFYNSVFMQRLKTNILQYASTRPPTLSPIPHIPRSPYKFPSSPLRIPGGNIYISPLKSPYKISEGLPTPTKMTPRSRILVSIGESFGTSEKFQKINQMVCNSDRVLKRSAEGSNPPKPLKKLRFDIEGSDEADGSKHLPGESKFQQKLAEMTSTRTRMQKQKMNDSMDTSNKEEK
T1 sequence (Q01094 243-437 partner limits assumed): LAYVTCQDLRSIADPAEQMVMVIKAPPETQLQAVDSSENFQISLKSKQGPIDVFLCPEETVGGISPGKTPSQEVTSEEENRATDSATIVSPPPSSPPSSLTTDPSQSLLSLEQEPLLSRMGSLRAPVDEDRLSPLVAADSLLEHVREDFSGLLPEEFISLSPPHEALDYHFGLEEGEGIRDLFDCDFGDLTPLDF
Briefly: ELISA: inhibition of HPV1A-E7-mediated disruption of pRb/E2F complexes. The test is classed as binding, low risk HPV (type 1A). As to conditions: E2F remaining bound to pRb; 500 nM 1AE7. On the procedure: Since HPV-E7 mediates high affinity pRb binding through the association of its L×C×E motif in CR2 to the B domain of pRb, the ability of the thiadiazolidinedione compounds to inhibit the ability of other L×C×E containing viral oncoproteins from disrupting E2F/pRb complexes was tested. The other L×C×E containing viral oncoproteins tested included HPV-E7 from a low risk HPV form (type 1A) and Adenovirus E1A proteins.
(§1) A similar ELISA assay was used to assess the ability of the compounds to inhibit the ability of HPV16-E7-mediated disruption of E2F/pRb complexes. For these studies, 6×His-HPV1AE7CR2-3 and 6×His-Ad5E1ACR1-3, containing the L×C×E motif, were employed. The assay described above was modified in such a way that GST-pRbABC alone was added to HPV-E7CR2-3+ compound, HPV-E7CR2-3+DMSO, Ad5-E1ACR1-3+ compound, or Ad5-E1ACR1-3 DMSO. Mouse monoclonal anti-His antibody (Fisher) diluted 1:10,000 was used to detect how much His-E7CR2-3 remained bound to GST-pRbABC on the plate. Mouse monoclonal Ad5-E1A antibody (Abeam) diluted 1:10,000 was used to detect how much E1ACR1-3 remained bound to GST-pRbABC on the plate. All other steps remained unchanged.
(In general: An ELISA detects its analyte on a solid surface through an enzyme-linked reagent.)

The target in test [2] is T2, GST-pRbABC/6×His-HPV1AE7CR2-3 complex (Homo sapiens, UniProt P06400).
T2 construct: made in house; host or cells: pRb: Sf9; E7: E. coli BL21(DE3)
T2 sequence (P06400 376-928): T1 sequence (P06400 376-928)
Briefly: ELISA: disruption of pRb/HPV1A-E7 complex. The test is classed as binding, low risk HPV (type 1A). As to conditions: disruption of pRb/viral oncoprotein complex; 500 nM 1AE7. As for the experimental part:
as §1

Test [3] addresses T3, GST-pRbABC/6×His-Ad5E1ACR1-3 complex (Homo sapiens, UniProt P06400).
T3 construct: made in house; host or cells: pRb: Sf9; E1A: E. coli BL21(DE3)
T3 sequence (P06400 376-928): T1 sequence (P06400 376-928)
Briefly: ELISA: disruption of pRb/Ad5-E1A complex. In kind it is binding, adenovirus. As to conditions: disruption of pRb/viral oncoprotein complex; 100 nM E1A. As for the experimental part: as §1

Another test relates to SiHa cells. Briefly: Cell cycle and apoptosis in SiHa cells, propidium iodide flow cytometry and morphology. The test is classed as cell-based. As to conditions: 48 hours, 10 μM compound (staurosporine 2 μM); for % Apoptotic / % S: SiHa. On the procedure: Since the thiadiazolin-3,5-dione compounds bind to pRb, data was generated regarding their effect in cells infected with HPV. […] DNA content was determined by propidium iodine staining and analysis by flow cytometry.
Cultured cell lines were seeded in 60 mm tissue culture dishes (Falcon) at 1×10^5 cells/well. […] Cells were then trypsinized, washed with phosphate-buffered saline (1.0 mL; PBS), and fixed in ethanol (80%) for 30 minutes on ice. Fixed cells were spun at 500 g for 5 minutes, rehydrated with PBS (1 mL), and spun again to remove any traces of ethanol. Cells were stained with propidium iodide (250 μL; PI), which was prepared by adding PI (100 μL, 2 mg/ml, Sigma) and RNase A (3.5 μL of 30 mg/ml, Sigma) into PBS (10 mL). Cells were then analyzed at the Wistar Institute Flow Cytometry Core Facility using standard equipment, reagents, and methodologies known in the art.
Background: Flow cytometry measures light scatter and fluorescence of single cells or particles in a stream.

Structures are written as SMILES.

The IC50 is the midpoint of a concentration-inhibition curve. Lower therefore signals greater potency.

In the case of `Cc1ccccc1-n1sc(=O)n(C)c1=O` [Compound 3], the IC50 in test [1] was found to be 4.5 ± 1.7 µM; in test [2], 3.4 ± 2 µM; in test [3], 1 ± 2.1 µM. In addition, the “effect on SiHa cells” value in the test with SiHa cells is “most drastically affected”. Besides, in the test on SiHa cells, the “% Apoptotic” value is recorded as 6.5%. In the test on SiHa cells, the “% S” value turned out to be 15.4%.
In test [1], `Cc1cc(Cl)ccc1-n1sc(=O)n(C(C)C)c1=O` [Compound 4] displayed an IC50 of 5.5 ± 1.7 µM. The molecule further displayed an IC50 in test [2] of 4.7 ± 2.1 µM. The molecule further displayed an IC50 in test [3] of 3.8 ± 1.5 µM. In the test on SiHa cells, the “effect on SiHa cells” value is reported as “most drastically affected”, the “% Apoptotic” value is 15.2% and the “% S” value is on record as 15.8%.
